Reference: US20230090255A1, “MAGL INHIBITOR, PREPARATION METHOD THEREFOR AND USE THEREOF” (LUNAN PHARMACEUTICAL GROUP CORPORATION, priority 2019, published 2023)

Key:
[1] = system: mice pain response induced by hot plate; test: Mice pain response induced by hot plate; type: in vivo, ICR mice; conditions: hot plate 55°C
Procedure: Female ICR mice (20±2) g were placed on an intelligent hot plate at 55±0.5° C., and latency (s) that the plantar of mice touched the hot plate until the occurrence of a hind paws licking response served as a pain threshold indicator; the mice (response latency <5 s or >30 s) or jumping mice were eliminated.
Grouping and administration were the same as those in Example 40.
The mice were continuously administered intragastrically for 7 consecutive days; the pain threshold of each group of mice was respectively determined once at 30, 60, 90 and 120 min after the final administration; the pain threshold greater than 60 s was calculated by 60 s.

[2] = system: mice with inflammatory pain; test: Pain threshold of mice with inflammatory pain (complete Freund's adjuvant); type: in vivo, SD mice; conditions: complete Freund's adjuvant paw model
Procedure: […] (180±20) g were injected with a complete Freund’s adjuvant (50 µL/piece) at the right rear plantar of mice, and mice in the control group were injected with the corresponding volume of 0.5% sodium carboxymethylcellulose to establish a paw edema inflammatory pain model. After modeling, the mice were administered for 7 d continuously, and administered intragastrically once per day. Pain thresholds (s) of the mice were respectively determined on the 1st, 3rd and 7th day before administration and after modeling at different periods of time.
Grouping and administration were the same as those of Example 40.

[3] = system: irritable bowel syndrome rats; test: Irritable bowel syndrome rats induced by early maternal separation; type: in vivo, SD rats; design: AWR scoring: scale not given here; conditions: IBS rats
Procedure: The newborn SD male rats were separated from the mother rat in lactation period for 3 h every day on the 2nd to the 21st day after the birth of the newborn SD rats, namely, the mother rat in lactation period was taken out of the cage at 8:30 a.m., and then the newborn rats were removed from the initial cage and put to another separate cage, then the cage was transferred to an adjacent room, then the newborn rats were returned to the initial cage 3 h later, namely, at 11:30 such that the newborn rats and the mother rat got together; the newborn rats were weaned on the 22nd day after birth and separated from the initial cage on the 30th day, grouped on the 60th day, and administered, 20 d in total.
Intragastric administration was performed within the administration period once a day with continuous administration for 20 d.
Test indicators: abdominal withdrawal reflex (AWR); test method: rats were fasted 18 h before the experiment and drank water freely, and narcotized with diethyl ether; then an air sac coated with paraffin oil was inserted into the rats’ colorectum for 4.0 cm, and a catheter outside the anus was fixed at the root of the rat tail with an adhesive tape, and connected with an injection syringe and a sphygmomanometer via three links. The rats were put to an organic glass inspection box (20 cmx12 cm×9 cm), after the rats were awake and fully adapted to the environment for 30 min, the experiment was started. 20, 40 and 60 mm Hg of pressure were respectively applied on the rats, and continuous expansion was performed for 20 s each time with a stimulus interval of 4 min; each pressure was performed for 3 times repeatedly for AWR scoring.
At the end of the experiment, the animals were dissected and weighed, and narcotized to take blood, then the content of 5-HT in serum was determined by high performance liquid chromatography. […] slightly with 0.5% sodium carboxymethylcellulose, and then sucked dry with a filter paper, and placed into a cryogenic tube, and preserved at -20° C. for further use, […] chromatography.

[4] = system: ulcerative colitis mice; test: Mice ulcerative colitis (DSS); type: in vivo, BALB/c mice; conditions: DSS mice; for Colon length: four periods; for IL-1 content: serum, ELISA
Text: Healthy male SPF-level BALB/c mice (8-week old and body mass: (20±2) g).
Modeling: the mice were randomly divided into […] at the end of the quarantine, 10 pieces for each group. The mice in the normal group drank normal water freely, and the rest groups of mice drank 1.0%-1.5% DSS solution freely for modeling, 7 d later after modeling, the mice in the modeling group drank normal water freely for 7 d, and 14 d served as a modeling period for four continuous periods, and the mice in the modeling group were administered at the same time.
End point of the experiment: experimental administration was performed for four periods, and dissection was performed on the 3rd and 4th day of the recovery period of the 4th period.
Test indicators: the mice were weighed twice a week after the beginning of the administration; diarrhea and hematochezia of the mice were observed, and times of hematochezia were recorded.
At the end of the experiment, the mice were dissected and weighed, and narcotized to take blood, then serum was preserved at -80° C. Spleen was taken and weighed to calculate the spleen index. The content of IL-1β in serum was detected via ELISA. Colorectum was cut and taken to measure the length of colorectum, then immobilized by formaldehyde and dyed by HE to detect the pathological change.

[5] = system: mice writhing caused by acetic acid; test: Mice writhing caused by acetic acid; conditions: for Writhing times: 1 h before 0.7% acetic acid ip, within 20 min; for Latent time: time to first writhing

`O=C(Nc1ccc(Cl)cc1)C1CCN(C(=O)c2ccc(O)cc2)CC1` [MAGLZ-II-10] gave a Pain threshold ([1]; high dose 30 mg/kg ig 7 d, 30 min after final administration) of 17.73 ± 6.20 s, a Pain threshold ([1]; high dose 30 mg/kg ig 7 d, 60 min) of 19.77 ± 6.73 s and a Pain threshold ([1]; high dose 30 mg/kg ig 7 d, 90 min) of 25.25 ± 7.01 s. For the same compound, the Pain threshold ([1]; high dose 30 mg/kg ig 7 d, 120 min) was 24.90 ± 5.73 s, the Pain threshold ([1]; low dose 7.5 mg/kg ig 7 d, 30 min after final administration) was 16.37 ± 6.00 s and the Pain threshold ([1]; low dose 7.5 mg/kg ig 7 d, 60 min) was 17.93 ± 5.75 s. The Pain threshold ([1]; low dose 7.5 mg/kg ig 7 d, 90 min) was 19.24 ± 4.72 s, the Pain threshold ([1]; low dose 7.5 mg/kg ig 7 d, 120 min) was 19.14 ± 4.63 s and the Pain threshold ([1]; middle dose 15 mg/kg ig 7 d, 30 min after final administration) was 16.67 ± 5.97 s. For the same compound, the Pain threshold ([1]; middle dose 15 mg/kg ig 7 d, 60 min) was 18.79 ± 5.95 s, the Pain threshold ([1]; middle dose 15 mg/kg ig 7 d, 90 min) was 22.43 ± 5.31 s and the Pain threshold ([1]; middle dose 15 mg/kg ig 7 d, 120 min) was 20.60 ± 4.64 s. For the same compound, the Pain threshold ([2]; high dose 30 mg/kg ig once per day, 0 d) was 12.93 ± 2.26 s, the Pain threshold ([2]; high dose 30 mg/kg ig once per day, 1 d) was 5.67 ± 0.93 s and the Pain threshold ([2]; high dose 30 mg/kg ig once per day, 3 d) was 7.95 ± 0.66 s. It also gave a Pain threshold ([2]; high dose 30 mg/kg ig once per day, 7 d) of 8.93 ± 0.61 s, a Pain threshold ([2]; low dose 7.5 mg/kg ig once per day, 0 d) of 12.71 ± 2.47 s and a Pain threshold ([2]; low dose 7.5 mg/kg ig once per day, 1 d) of 5.59 ± 0.89 s. For the same compound, the Pain threshold ([2]; low dose 7.5 mg/kg ig once per day, 3 d) was 7.15 ± 0.59 s, the Pain threshold ([2]; low dose 7.5 mg/kg ig once per day, 7 d) was 8.33 ± 0.57 s and the Pain threshold ([2]; middle dose 15 mg/kg ig once per day, 0 d) was 12.77 ± 2.48 s. The Pain threshold ([2]; middle dose 15 mg/kg ig once per day, 1 d) was 5.62 ± 0.84 s, the Pain threshold ([2]; middle dose 15 mg/kg ig once per day, 3 d) was 7.18 ± 0.55 s and the Pain threshold ([2]; middle dose 15 mg/kg ig once per day, 7 d) was 8.36 ± 0.59 s. For the same compound, the “Colon 5-HT” value ([3]; high dose 30 mg/kg ig 20 d) was 18.66±2.38^∗ µg/mg, the “Serum 5-HT” value ([3]; high dose 30 mg/kg ig 20 d) was 33.09±2.31^∗ µg/ml and the AWR scoring ([3]; high dose 30 mg/kg ig 20 d, 20 mm Hg) was 2.89±0.46. For the same compound, the AWR scoring ([3]; high dose 30 mg/kg ig 20 d, 40 mm Hg) was 3.21±0.35^∗, the AWR scoring ([3]; high dose 30 mg/kg ig 20 d, 60 mm Hg) was 3.65±0.17^∗ and the “Colon 5-HT” value ([3]; low dose 7.5 mg/kg ig 20 d) was 21.44 ± 2.72 µg/mg. The “Serum 5-HT” value ([3]; low dose 7.5 mg/kg ig 20 d) was 36.32 ± 3.14 µg/mL, the AWR scoring ([3]; low dose 7.5 mg/kg ig 20 d, 20 mm Hg) was 2.87±0.39 and the AWR scoring ([3]; low dose 7.5 mg/kg ig 20 d, 40 mm Hg) was 3.43±0.30. For the same compound, the AWR scoring ([3]; low dose 7.5 mg/kg ig 20 d, 60 mm Hg) was 3.79±0.20, the “Colon 5-HT” value ([3]; middle dose 15 mg/kg ig 20 d) was 20.97 ± 2.24 µg/mg and the “Serum 5-HT” value ([3]; middle dose 15 mg/kg ig 20 d) was 38.65 ± 2.68 µg/mL. It also gave an AWR scoring ([3]; middle dose 15 mg/kg ig 20 d, 20 mm Hg) of 2.83±0.47, an AWR scoring ([3]; middle dose 15 mg/kg ig 20 d, 40 mm Hg) of 3.56±0.22 and an AWR scoring ([3]; middle dose 15 mg/kg ig 20 d, 60 mm Hg) of 3.80±0.17. For the same compound, the “Total times of hematochezia within the four periods” value (“Total times” below) ([4]; high dose 30 mg/kg ig) was 35.15±4.52, the Colon length ([4]; high dose 30 mg/kg ig) was 6.35±0.61 cm and the IL-1 content ([4]; high dose 30 mg/kg ig) was 47.25 ± 6.37 pg/mL. The “Total times” value ([4]; low dose 7.5 mg/kg ig) was 38.40±5.02, the Colon length ([4]; low dose 7.5 mg/kg ig) was 5.92±0.66 cm and the IL-1 content ([4]; low dose 7.5 mg/kg ig) was 51.81 ± 7.86 pg/mL. For the same compound, the “Total times” value ([4]; middle dose 15 mg/kg ig) was 38.20±7.83, the Colon length ([4]; middle dose 15 mg/kg ig) was 5.72±0.60 cm and the IL-1 content ([4]; middle dose 15 mg/kg ig) was 50.83 ± 7.79 pg/mL. For the same compound, the Writhing times ([5]; high dose 30 mg/kg ig) was 24.8±11.1^∗, the Latent time ([5]; high dose 30 mg/kg ig) was 306.4±90.2^∗ s and the Writhing times ([5]; low dose 7.5 mg/kg ig) was 34.0±9.1. The Latent time ([5]; low dose 7.5 mg/kg ig) was 235.4 ± 59.6 s, the Writhing times ([5]; middle dose 15 mg/kg ig) was 32.8±11.6 and the Latent time ([5]; middle dose 15 mg/kg ig) was 246.2 ± 69.5 s.
